In series [1] the target is T1, GluN2B receptors (Rattus norvegicus, UniProt P35439+Q00960).
T1 construct: from tissue; host or cells: brain of living male rats (PET imaging)
In words: ED50 for pre-blocking of GluN2B radioligand uptake in rat whole brain (PET). Format: in vivo. To be noted: rat; read-out: ED50 in rat whole brain in vivo ^11C-(+)-NR2B-Me. The protocol: For radioligand injection, a polyethylene catheter (PE 10) was inserted into the penile vein of a male rat and then secured with tissue adhesive and tape. […] Body temperature was monitored with a rectal probe. All PET scans were performed on a microPET Focus 220 scanner (Siemens Medical Solutions) (7,8). Data were acquired in listmode and reconstructed with Fourier rebinning + 2D filtered backprojection. A transmission scan was acquired before radioligand injection for attenuation correction. Dynamic scanning began at the time of a one-minute intravenous bolus injection of the radioligand under study (55 ± 19 MBq; volume 0.2 to 1.0 mL). The injected mass dose was 3 ± 1 nmol/kg. Challenge agents were administered intravenously 10 minutes before the radioligand for pre-blocking studies or 10 minutes after the radioligand for displacement studies. Tomographic images were analyzed with pixel-wise modeling computer software (PMOD 2.6; PMOD Group). Regions-of-interest in the brain were delineated, and time-activity curves calculated as SUV versus time.
Pre-blocking and displacement experiments were performed to assess radioligand target engagement and radioligand selectivity in vivo. […] Areas-under the curve (AUCs) from time-activity curves between 20 and 90 minutes were calculated for each radioligand. AUCs obtained from the same production of radioligand were scaled to the value (or mean value) for the baseline experiment to give relative values (relative AUC20–90 min). […] Where data permitted, the dose-response curves were fitted with GraphPad Prism software (version 8.1.1; GraphPad) to estimate the ED50 values. A dummy value of 100 pmol per kg body weight was used for zero concentration of the challenge agent in the construction of these dose-response curves. Numerical data are expressed as mean ± S.D. for n>2, or as mean and range for n = 2.

Series [2] concerns the target T2, GluN2B (Homo sapiens, UniProt Q05586+Q13224).
T2 construct: expressed in transfected cells; host or cells: transiently transfected mouse fibroblast cells (membrane homogenate)
To be noted: cited from earlier work.

Series [3] deals with T1, GluN2B receptors. The arrangement: method as in PMID 31924728. The note with it: pre-blocking, radioligand ^11C-(S)-NR2B-SMe; cited from earlier work.
Series [4] addresses guinea pig σ1 receptor (Cavia porcellus, UniProt Q60492). In words: PDSP σ1 receptor binding. To be noted: 10 μM; read-out: inhibition of reference radioligand binding, guinea pig σ1 receptor. From the text: (§1) NR2B-Me was submitted to the PDSP for assessment of binding affinity against a wide range of other receptors and binding sites. A full listing of these receptors and binding sites is given in the Supplemental Results. Detailed assay protocols are available at the PDSP website (http://pdsp.cwru.edu).
(§2) Assessment of Binding Affinity against a Wide Range of Other Receptors and Binding Sites. NR2B-Me was submitted to the National Institute of Mental Health Psychoactive Drug Screening program (NIMH-PDSP) to assess binding affinity against a wide range of other receptors and binding sites (5-HT1A, 1B, 1D, 1E, 2A, 2A agonist, 2A antagonist, 2B, 2B agonist, 2B antagonist, 2C, 2C agonist, 2C antagonist, 3, 5A, 6, 7; α2; α2β2, α2β2, α3β2, α3β4, α4β2, α4β4, α7; α1A, 1A agonist, 1B, 1B agonist, 1B antagonist, 2A-2C; AMPA*; β1-3; BZPa1-3, a5, a6, rat brain site; Ca^2+-Channel; CB1-2, D1, 2, 2 agonist, 2 antagonist, 3-5; DAT; DOR; EP1-4; GABAA,B; GPR40,41,43; H1-4; HERG; IMIDAZOLINE 1; KA-R*; KOR, KORagonist, antagonist; M1, 1 agonist, 1 antagonist, 2, 3, 3 agonist, 3 antagonist, 4, 5, 5 agonist, 5 antagonist; MDR 1; mGluR1A,2,4,5,5-cloned,5-rat brain,6,8; MOR; Na^+-Channel; NET; NK1, 1 antagonist, 2, 2 antagonist, 3, 3 antagonist; NMDA; NMDA/MK801; NT-1; OXYTOCINagonist, antagonist; PAR1agonist, antagonist; PCP; PKCA, B, D, E, G; PTHR2, Purinergicagonist, antagonist; SET; σ1,2; V1, 1 agonist, 1 antagonist, 2, 2 agonist, 2 antagonist, 3, 3 agonist, 3 antagonist, VMAT1, 2).

The target of series [5] is T3, PC12 cell σ2 receptors (Rattus norvegicus, UniProt Q5U3Y7).
T3 construct: endogenous in cells; host or cells: PC12 cells
T3 sequence (Q5U3Y7 1-176): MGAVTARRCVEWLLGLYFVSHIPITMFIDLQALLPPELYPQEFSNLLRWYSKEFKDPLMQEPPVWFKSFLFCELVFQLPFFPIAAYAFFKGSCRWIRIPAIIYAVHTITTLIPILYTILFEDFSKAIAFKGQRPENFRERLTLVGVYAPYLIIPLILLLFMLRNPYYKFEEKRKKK
The series can be described thus: PDSP σ2 receptor binding. To be noted: at 10 µM (Table 1 footnote: 10 µmol), PC12 cell σ2.
Excerpt: as §1, §2

Series [6] deals with calcium channel. The series can be described thus: PDSP pharmacological screen, calcium channel. The format is binding. The note with it: 10 μM.
Excerpt: as §1
(§3) Assessment of Binding Affinity against a Wide Range of Other Receptors and Binding Sites. […]

Series [7] concerns the target hERG channel (Homo sapiens, UniProt Q12809). In words: PDSP pharmacological screen, hERG channel. To be noted: read-out: inhibition of reference radioligand binding, hERG channel.
Excerpt: as §1, §3
Background: The hERG channel carries a current that helps repolarise heart muscle cells.

Series [8] relates to numerous binding sites and receptors. In words: PDSP pharmacological screen, other receptors and binding sites. The note with it: 10 μM; not greater than 10% for sites other than calcium channel, hERG, σ1, σ2.
Excerpt: as §1, §3

Series [9] in a line: LogD7.4 measurement (1-octanol / sodium phosphate buffer). The format is physicochemical. The note with it: 1-octanol/sodium phosphate buffer, pH 7.4; Table 1; text gives this value as measured logD7.4; read-out: cLogD7.4.
Method: The radiochemical purity of the radioligand was measured via HPLC. […] Aliquots (1 mL) were distributed to each of eight borosilicate disposable culture tubes (13 × 100 mm). Six tubes were extracted with buffer pre-treated 1-octanol (1 mL) by vortexing for one minute and then centrifuged for one minute. The organic and aqueous phases were separated. Samples of organic phase (50 µL) and aqueous phase (50 µL) were taken and separately measured for radioactivity. The remaining two tubes containing radioactivity in buffer were analyzed with HPLC to check for any decrease in radiochemical purity over the time-span of the experiment. […] LogD was calculated as log[(cpm/mL for 1-octanol phase)/(cpm/mL for aqueous phase)] using Pallas for Windows software (CompuDrug Inc.).
Series [10] can be described thus: pKa measurement (cyclohexane / sodium phosphate buffers). To be noted: cyclohexane/sodium phosphate buffer; distribution between cyclohexane and sodium phosphate buffers; read-out: pKa (apparent). Format: physicochemical.

T1 sequence (Q00960 27-1482, other chains not shown): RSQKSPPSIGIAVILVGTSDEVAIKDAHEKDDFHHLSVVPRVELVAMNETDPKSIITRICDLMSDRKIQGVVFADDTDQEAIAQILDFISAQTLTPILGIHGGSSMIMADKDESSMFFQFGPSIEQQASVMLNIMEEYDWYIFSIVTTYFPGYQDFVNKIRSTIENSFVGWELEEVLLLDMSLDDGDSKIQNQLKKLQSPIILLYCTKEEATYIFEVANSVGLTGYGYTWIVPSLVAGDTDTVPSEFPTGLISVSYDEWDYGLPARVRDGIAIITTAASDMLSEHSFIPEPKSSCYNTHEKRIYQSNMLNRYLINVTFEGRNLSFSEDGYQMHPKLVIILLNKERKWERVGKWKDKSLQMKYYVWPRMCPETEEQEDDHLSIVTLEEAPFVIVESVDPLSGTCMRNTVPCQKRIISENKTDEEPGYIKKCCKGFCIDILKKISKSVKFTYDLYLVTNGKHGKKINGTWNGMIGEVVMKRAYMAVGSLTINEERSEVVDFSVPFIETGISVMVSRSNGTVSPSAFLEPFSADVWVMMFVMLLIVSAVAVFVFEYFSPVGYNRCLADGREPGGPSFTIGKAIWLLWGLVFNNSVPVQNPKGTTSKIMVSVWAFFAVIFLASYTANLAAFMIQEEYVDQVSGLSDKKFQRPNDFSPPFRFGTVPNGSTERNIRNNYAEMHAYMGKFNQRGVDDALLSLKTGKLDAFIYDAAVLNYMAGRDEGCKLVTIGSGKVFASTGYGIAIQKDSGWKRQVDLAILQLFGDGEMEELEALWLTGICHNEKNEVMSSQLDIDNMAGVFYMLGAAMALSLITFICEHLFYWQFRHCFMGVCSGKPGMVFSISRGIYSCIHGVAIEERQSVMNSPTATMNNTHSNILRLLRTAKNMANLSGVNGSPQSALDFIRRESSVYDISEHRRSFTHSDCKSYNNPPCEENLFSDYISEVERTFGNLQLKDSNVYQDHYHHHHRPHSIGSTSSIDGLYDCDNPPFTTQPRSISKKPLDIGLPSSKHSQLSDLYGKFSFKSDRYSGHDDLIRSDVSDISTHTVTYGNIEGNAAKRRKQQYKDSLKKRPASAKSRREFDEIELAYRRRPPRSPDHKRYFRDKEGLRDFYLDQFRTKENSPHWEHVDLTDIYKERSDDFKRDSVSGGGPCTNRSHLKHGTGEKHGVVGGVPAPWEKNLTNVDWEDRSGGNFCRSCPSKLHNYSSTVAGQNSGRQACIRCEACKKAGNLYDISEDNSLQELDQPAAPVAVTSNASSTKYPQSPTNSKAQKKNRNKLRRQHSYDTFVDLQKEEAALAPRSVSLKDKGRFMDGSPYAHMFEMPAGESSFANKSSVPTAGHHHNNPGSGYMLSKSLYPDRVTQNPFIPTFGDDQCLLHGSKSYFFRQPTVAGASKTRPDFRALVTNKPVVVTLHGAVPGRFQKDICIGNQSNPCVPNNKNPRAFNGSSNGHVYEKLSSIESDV
T2 sequence (Q13224 27-1484, species assumed, other chains not shown): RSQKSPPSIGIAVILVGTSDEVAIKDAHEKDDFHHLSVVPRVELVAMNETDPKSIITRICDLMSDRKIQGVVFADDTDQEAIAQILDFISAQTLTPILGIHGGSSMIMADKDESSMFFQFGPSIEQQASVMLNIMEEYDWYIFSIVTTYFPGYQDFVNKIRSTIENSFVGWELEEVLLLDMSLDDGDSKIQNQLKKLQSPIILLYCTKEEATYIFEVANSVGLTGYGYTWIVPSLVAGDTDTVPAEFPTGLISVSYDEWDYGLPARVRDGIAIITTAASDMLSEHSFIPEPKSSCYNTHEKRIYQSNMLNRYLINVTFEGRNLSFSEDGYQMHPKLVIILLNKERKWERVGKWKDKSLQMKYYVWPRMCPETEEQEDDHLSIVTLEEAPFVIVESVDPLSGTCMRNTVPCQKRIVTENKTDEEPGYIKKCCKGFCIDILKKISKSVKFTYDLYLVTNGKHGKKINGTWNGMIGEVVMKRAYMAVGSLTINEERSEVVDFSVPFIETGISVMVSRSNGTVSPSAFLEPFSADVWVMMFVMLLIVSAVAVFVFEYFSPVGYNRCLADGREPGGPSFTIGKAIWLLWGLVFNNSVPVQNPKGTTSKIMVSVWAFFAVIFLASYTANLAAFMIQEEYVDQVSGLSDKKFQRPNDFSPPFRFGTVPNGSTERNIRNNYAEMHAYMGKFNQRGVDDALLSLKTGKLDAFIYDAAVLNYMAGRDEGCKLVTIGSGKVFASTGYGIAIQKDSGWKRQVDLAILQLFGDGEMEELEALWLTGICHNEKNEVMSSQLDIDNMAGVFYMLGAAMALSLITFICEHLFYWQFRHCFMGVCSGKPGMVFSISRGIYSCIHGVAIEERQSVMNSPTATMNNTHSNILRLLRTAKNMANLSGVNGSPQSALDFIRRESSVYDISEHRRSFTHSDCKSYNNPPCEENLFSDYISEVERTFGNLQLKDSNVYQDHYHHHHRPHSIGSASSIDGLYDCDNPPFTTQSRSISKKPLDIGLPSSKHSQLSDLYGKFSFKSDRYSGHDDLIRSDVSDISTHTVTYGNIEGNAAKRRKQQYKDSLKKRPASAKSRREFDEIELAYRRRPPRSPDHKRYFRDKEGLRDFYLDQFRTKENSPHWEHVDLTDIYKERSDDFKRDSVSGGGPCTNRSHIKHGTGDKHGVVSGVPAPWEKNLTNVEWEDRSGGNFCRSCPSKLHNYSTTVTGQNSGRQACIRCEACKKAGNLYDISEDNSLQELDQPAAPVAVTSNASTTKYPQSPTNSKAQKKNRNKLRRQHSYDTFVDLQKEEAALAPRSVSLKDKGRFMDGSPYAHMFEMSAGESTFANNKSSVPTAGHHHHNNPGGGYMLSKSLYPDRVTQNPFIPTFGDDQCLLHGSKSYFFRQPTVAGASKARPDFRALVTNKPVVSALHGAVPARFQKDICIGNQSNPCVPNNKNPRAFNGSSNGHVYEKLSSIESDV
Chain of guinea pig σ1 receptor (Q60492 whole entry): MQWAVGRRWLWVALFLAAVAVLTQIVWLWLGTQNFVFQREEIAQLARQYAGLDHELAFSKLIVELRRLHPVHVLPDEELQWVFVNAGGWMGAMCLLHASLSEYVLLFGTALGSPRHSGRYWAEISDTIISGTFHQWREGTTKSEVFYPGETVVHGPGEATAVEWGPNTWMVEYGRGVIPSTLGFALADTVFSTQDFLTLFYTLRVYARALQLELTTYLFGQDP
Chain of hERG channel (Q12809 whole entry): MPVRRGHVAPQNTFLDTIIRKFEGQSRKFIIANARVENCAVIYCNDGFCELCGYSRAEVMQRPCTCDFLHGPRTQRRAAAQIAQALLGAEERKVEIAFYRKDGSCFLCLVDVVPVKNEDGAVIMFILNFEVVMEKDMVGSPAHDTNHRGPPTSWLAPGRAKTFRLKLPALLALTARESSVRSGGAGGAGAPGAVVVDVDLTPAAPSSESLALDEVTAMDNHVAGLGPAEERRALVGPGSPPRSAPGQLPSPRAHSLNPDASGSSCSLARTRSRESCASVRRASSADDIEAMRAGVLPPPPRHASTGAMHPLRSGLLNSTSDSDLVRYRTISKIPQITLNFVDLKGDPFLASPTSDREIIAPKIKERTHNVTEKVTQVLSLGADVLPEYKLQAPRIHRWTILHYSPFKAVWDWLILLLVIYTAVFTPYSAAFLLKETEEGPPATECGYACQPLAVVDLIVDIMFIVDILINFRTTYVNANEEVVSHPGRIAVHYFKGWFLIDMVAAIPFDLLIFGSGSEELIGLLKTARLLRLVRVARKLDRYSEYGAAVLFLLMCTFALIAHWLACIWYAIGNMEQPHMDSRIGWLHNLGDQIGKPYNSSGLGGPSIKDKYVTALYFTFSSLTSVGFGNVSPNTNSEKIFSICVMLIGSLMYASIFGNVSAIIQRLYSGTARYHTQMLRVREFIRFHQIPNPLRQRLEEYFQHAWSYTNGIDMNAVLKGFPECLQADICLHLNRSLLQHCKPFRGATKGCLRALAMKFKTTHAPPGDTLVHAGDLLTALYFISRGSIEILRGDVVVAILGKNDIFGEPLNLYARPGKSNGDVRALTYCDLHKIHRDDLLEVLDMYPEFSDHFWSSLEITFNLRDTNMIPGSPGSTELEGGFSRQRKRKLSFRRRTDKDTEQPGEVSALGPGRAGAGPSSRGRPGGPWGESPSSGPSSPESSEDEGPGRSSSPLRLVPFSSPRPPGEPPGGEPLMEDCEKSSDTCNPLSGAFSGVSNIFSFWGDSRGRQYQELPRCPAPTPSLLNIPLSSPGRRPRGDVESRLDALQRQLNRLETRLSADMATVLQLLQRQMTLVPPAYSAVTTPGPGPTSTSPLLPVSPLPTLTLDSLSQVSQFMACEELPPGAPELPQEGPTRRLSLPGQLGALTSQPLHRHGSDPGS

On to `Cc1ccc(CC2(O)CCN(CCOc3ccc(O)cc3)CC2)cc1` [CO101,244], for which the ED50 (in general, the dose that gives a 50% effect, or the effect in half of the subjects) in series [1] is 0.041 µmol/kg. Moreover, in series [2], the Ki (commonly the dissociation constant of the complex between target and ligand, obtained from inhibition or displacement) was 43 nM. Also, the “ED50 in rat whole brain in vivo ^11C-(S)-NR2B-SMe” value in [3] is given as 74 nmol/kg.
For `COc1ccc2c(c1)CCN(CCCCc1ccc(C)cc1)CC2O` (stereo not drawn) [NR2B-Me, 7-methoxy-3-(4-(p-tolyl)butyl)-2,3,4,5-tetrahydro-1H-benzo[d]azepin-1-ol], the inhibition – broadly, the relative decrease from the control value, in per cent – at 10 µM turned out to be 89.7% in series [4], 90.7% in [5] and 61.7% in series [7]. The compound further came in with a σ2 inhibition in [5] (10 µM) of 91%. Further, the “inhibition of reference radioligand binding, calcium channel” value in series [6] came out at 39.6%. In series [8], the “inhibition of reference radioligand binding, numerous other binding sites and receptors” value was “only weakly inhibited”. Besides, the logD in series [9] worked out at 3.27. Also, in series [10], the pKa (in general, the negative logarithm of the acid dissociation constant) came to 5.04.
In the case of `C[C@@H](CN1CCC(Cc2ccccc2)CC1)[C@@H](O)c1ccc(O)cc1` [Ro-25-6981], the Ki in [2] is 9 nM.

The values are drawn from article PMC10076467 (EJNMMI Research, 2023).
